What was measured:
[1] = compound: CC(=O)c1c(C)c2cnc(Nc3ccc(N4CCN(CCOCCOCCOCCNC(=O)COc5cccc6c5C(=O)N(C5CCC(=O)NC5=O)C6=O)CC4)cn3)nc2n(C2CCCC2)c1=O [BSJ-03-123]; assay: increase in dead-cell fraction, 72 h; higher = more death;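 also: breast cancer cell lines in 384-well plates, stained with Hoechst plus LIVE/DEAD far red dye and imaged, cells above an LDR intensity threshold counted dead, Hoechst-negative corpses included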
[2] = compound: C=CC(=O)Nc1ccc(C(=O)Nc2[nH]nc3c2CN(C(=O)N[C@H](CN(C)C)c2ccccc2)C3(C)C)cc1 [YKL-5-124]; assay: as above
[3] = compound: CCc1cnn2c(NCc3ccc[n+]([O-])c3)cc(N3CCCC[C@H]3CCO)nc12; assay: as above
[4] = compound: CN(C)C/C=C/C(=O)Nc1ccc(C(=O)N2CCC[C@@H](Nc3ncc(Cl)c(-c4c[nH]c5ccccc45)n3)C2)cc1 [THZ531]; assay: as above
[5] = compound: CN1CC[C@H](c2c(O)cc(O)c3c(=O)cc(-c4ccccc4Cl)oc23)[C@H](O)C1 [Flavopiridol]; assay: as above
[6] = compound: CCOc1cc2ncc(C#N)c(Nc3ccc(OCc4ccccn4)c(Cl)c3)c2cc1NC(=O)/C=C/CN(C)C [Neratinib/HKI272]; assay: as above
[7] = compound: CN(C)C/C=C/C(=O)Nc1ccc(C(=O)Nc2cccc(Nc3ncc(Cl)c(-c4c[nH]c5ccccc45)n3)c2)cc1 [THZ1]; assay: as above
[8] = compound: CC(=O)c1c(C)c2cnc(Nc3ccc(N4CCNCC4)cn3)nc2n(C2CCCC2)c1=O; assay: as above
[9] = compound: T1, CN(C)C(=O)c1cc2cnc(Nc3ccc(N4CCNCC4)cn3)nc2n1C1CCCC1 [LEE011/Ribociclib]; assay: as above
[10] = compound: CCN1CCN(Cc2ccc(Nc3ncc(F)c(-c4cc(F)c5nc(C)n(C(C)C)c5c4)n3)nc2)CC1; assay: as above
[11] = compound: CS(=O)(=O)N1CCN(Cc2cc3nc(-c4cccc5[nH]ncc45)nc(N4CCOCC4)c3s2)CC1 [Pictilisib/GDC0941]
[12] = compound: CCc1cnn2c(NCc3ccc[n+]([O-])c3)cc(N3CCCC[C@H]3CCO)nc12
[13] = compound: COc1cccc2c1C(=O)c1c(O)c3c(c(O)c1C2=O)C[C@@](O)(C(=O)CO)C[C@@H]3O[C@H]1C[C@H](N)[C@H](O)[C@H](C)O1 [Doxorubicin]
[14] = compound: Cc1cc(Nc2ncc(Cl)c(Nc3ccccc3S(=O)(=O)C(C)C)n2)c(OC(C)C)cc1C1CCNCC1 [Ceritinib/LDK378]
[15] = compound: Cc1nn(C)c(COc2ccc(N3CCN(S(=O)(=O)N(C)C)CC3)cc2)c1-c1cccc2c(CCCOc3cccc4ccccc34)c(C(=O)O)n(CCN3CCOCC3)c12
[16] = compound: T1, LEE011/Ribociclib
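For GR50, 72 h in this document: breast cancer and non-malignant breast epithelial cell lines, Deep Dye Drop or Dye Drop imaging, nine half-log doses, GR normalized to time-zero plates and DMSO-only controls.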

## MDAMB330
[1]; 0.001 µM
  increase in dead-cell fraction: 0.0018
[1]; 0.003162 µM
  increase in dead-cell fraction: 0.0001
[1]; 0.01 µM
  increase in dead-cell fraction: 0.0015
[1]; 0.03162 µM
  increase in dead-cell fraction: 0.003
[1]; 0.1 µM
  increase in dead-cell fraction: 0.0019
[1]; 0.3162 µM
  increase in dead-cell fraction: 0.0031
[1]; 1 µM
  increase in dead-cell fraction: 0.0019
[1]; 3.162 µM
  increase in dead-cell fraction: 0.0034
[1]; 10 µM
  increase in dead-cell fraction: 0.0354
[2]; 0.001 µM
  increase in dead-cell fraction: 0.0025
[2]; 0.003162 µM
  increase in dead-cell fraction: 0.0078
[2]; 0.01 µM
  increase in dead-cell fraction: 0.0057
[2]; 0.03162 µM
  increase in dead-cell fraction: 0.0038
[2]; 0.1 µM
  increase in dead-cell fraction: 0.0034
[2]; 0.3162 µM
  increase in dead-cell fraction: 0.0041
[2]; 1 µM
  increase in dead-cell fraction: 0.0016
[2]; 3.162 µM
  increase in dead-cell fraction: 0.0166
[2]; 10 µM
  increase in dead-cell fraction: 0.131
[3]; 0.0001 µM
  increase in dead-cell fraction: -0.0012
[3]; 0.0003162 µM
  increase in dead-cell fraction: -0.0001
[3]; 0.001 µM
  increase in dead-cell fraction: 0.0032
[3]; 0.003162 µM
  increase in dead-cell fraction: 0.0022
[3]; 0.01 µM
  increase in dead-cell fraction: 0.0023
[3]; 0.03162 µM
  increase in dead-cell fraction: 0.0691
[4]; 0.0001 µM
  increase in dead-cell fraction: 0.0039
[4]; 0.0003162 µM
  increase in dead-cell fraction: -0.0007
[4]; 0.001 µM
  increase in dead-cell fraction: 0.0004
[4]; 0.003162 µM
  increase in dead-cell fraction: 0.0018
[4]; 0.01 µM
  increase in dead-cell fraction: 0.0041
[4]; 0.03162 µM
  increase in dead-cell fraction: 0.0164
[4]; 0.1 µM
  increase in dead-cell fraction: 0.664
[4]; 0.3162 µM
  increase in dead-cell fraction: 0.519
[4]; 1 µM
  increase in dead-cell fraction: 0.413
[5]; 0.0001 µM
  increase in dead-cell fraction: -0.0007
[5]; 0.0003162 µM
  increase in dead-cell fraction: 0.0052
[5]; 0.001 µM
  increase in dead-cell fraction: -0.0013
[5]; 0.003162 µM
  increase in dead-cell fraction: -0.0006
[5]; 0.01 µM
  increase in dead-cell fraction: -0.0015
[5]; 0.03162 µM
  increase in dead-cell fraction: 0.0024
[5]; 0.1 µM
  increase in dead-cell fraction: -0.0007
[5]; 0.3162 µM
  increase in dead-cell fraction: 0.0097
[5]; 1 µM
  increase in dead-cell fraction: 0.25
[6]; 0.0003162 µM
  increase in dead-cell fraction: -0.0001
[6]; 0.001 µM
  increase in dead-cell fraction: 0.0011
[6]; 0.003162 µM
  increase in dead-cell fraction: 0.0102
[6]; 0.01 µM
  increase in dead-cell fraction: 0.043
[6]; 0.03162 µM
  increase in dead-cell fraction: 0.0716
[6]; 0.1 µM
  increase in dead-cell fraction: 0.0731
[6]; 0.3162 µM
  increase in dead-cell fraction: 0.0685
[6]; 1 µM
  increase in dead-cell fraction: 0.0784
[6]; 3.162 µM
  increase in dead-cell fraction: 0.0756
[7]; 0.0001 µM
  increase in dead-cell fraction: 0.0016
[7]; 0.0003162 µM
  increase in dead-cell fraction: 0.0039
[7]; 0.001 µM
  increase in dead-cell fraction: 0.0043
[7]; 0.003162 µM
  increase in dead-cell fraction: 0.0044
[7]; 0.01 µM
  increase in dead-cell fraction: 0.0071
[7]; 0.03162 µM
  increase in dead-cell fraction: 0.105
[7]; 0.1 µM
  increase in dead-cell fraction: 0.359
[7]; 0.3162 µM
  increase in dead-cell fraction: 0.389
[7]; 1 µM
  increase in dead-cell fraction: 0.311
[8]; 0.0003162 µM
  increase in dead-cell fraction: -0.001
[8]; 0.001 µM
  increase in dead-cell fraction: -0.0006
[8]; 0.003162 µM
  increase in dead-cell fraction: -0.001
[8]; 0.01 µM
  increase in dead-cell fraction: -0.0033
[8]; 0.03162 µM
  increase in dead-cell fraction: -0.0012
[8]; 0.1 µM
  increase in dead-cell fraction: -0.0017
[8]; 0.3162 µM
  increase in dead-cell fraction: 0.0031
[8]; 1 µM
  increase in dead-cell fraction: 0.0053
[8]; 3.162 µM
  increase in dead-cell fraction: 0.0031
[9]; 0.001 µM
  increase in dead-cell fraction: 0.0031
[9]; 0.003162 µM
  increase in dead-cell fraction: 0.0013
[9]; 0.01 µM
  increase in dead-cell fraction: 0.0054
[9]; 0.03162 µM
  increase in dead-cell fraction: 0.0111
[9]; 0.1 µM
  increase in dead-cell fraction: 0.0037
[9]; 0.3162 µM
  increase in dead-cell fraction: -0.0005
[9]; 1 µM
  increase in dead-cell fraction: -0.0028
[9]; 3.162 µM
  increase in dead-cell fraction: 0.0128
[9]; 10 µM
  increase in dead-cell fraction: 0.0025
[10]; 0.001 µM
  increase in dead-cell fraction: 0.0005
[10]; 0.003162 µM
  increase in dead-cell fraction: -0.0003
[10]; 0.01 µM
  increase in dead-cell fraction: 0.0039
[10]; 0.03162 µM
  increase in dead-cell fraction: 0.003
[10]; 0.1 µM
  increase in dead-cell fraction: 0.0014
[10]; 0.3162 µM
  increase in dead-cell fraction: 0.0018
[10]; 1 µM
  increase in dead-cell fraction: 0.0017
[10]; 3.162 µM
  increase in dead-cell fraction: 0.0048
[10]; 10 µM
  increase in dead-cell fraction: 0.0109
[11]
  GR50, 72 h: 0.293 µM
[12]
  GR50, 72 h: 0.0203 µM
[13]
  GR50, 72 h: 0.00368 µM
[14]
  GR50, 72 h: 1.13 µM
[15]
  GR50, 72 h: > 10 µM
[16]
  GR50, 72 h: < 0.001 µM
